Measurements taken from paper PMC4948722 (Cancer research, 2011).

Assays:
Experiment in all cases: kinase panel, […] compound, […] ATP
Type in all cases: biochemical
Conditions in all cases: read-out: % inhibition at 1 μM
[1] = target: T1, GCK (Homo sapiens, UniProt Q12851)
T1 sequence (Q12851 1-820): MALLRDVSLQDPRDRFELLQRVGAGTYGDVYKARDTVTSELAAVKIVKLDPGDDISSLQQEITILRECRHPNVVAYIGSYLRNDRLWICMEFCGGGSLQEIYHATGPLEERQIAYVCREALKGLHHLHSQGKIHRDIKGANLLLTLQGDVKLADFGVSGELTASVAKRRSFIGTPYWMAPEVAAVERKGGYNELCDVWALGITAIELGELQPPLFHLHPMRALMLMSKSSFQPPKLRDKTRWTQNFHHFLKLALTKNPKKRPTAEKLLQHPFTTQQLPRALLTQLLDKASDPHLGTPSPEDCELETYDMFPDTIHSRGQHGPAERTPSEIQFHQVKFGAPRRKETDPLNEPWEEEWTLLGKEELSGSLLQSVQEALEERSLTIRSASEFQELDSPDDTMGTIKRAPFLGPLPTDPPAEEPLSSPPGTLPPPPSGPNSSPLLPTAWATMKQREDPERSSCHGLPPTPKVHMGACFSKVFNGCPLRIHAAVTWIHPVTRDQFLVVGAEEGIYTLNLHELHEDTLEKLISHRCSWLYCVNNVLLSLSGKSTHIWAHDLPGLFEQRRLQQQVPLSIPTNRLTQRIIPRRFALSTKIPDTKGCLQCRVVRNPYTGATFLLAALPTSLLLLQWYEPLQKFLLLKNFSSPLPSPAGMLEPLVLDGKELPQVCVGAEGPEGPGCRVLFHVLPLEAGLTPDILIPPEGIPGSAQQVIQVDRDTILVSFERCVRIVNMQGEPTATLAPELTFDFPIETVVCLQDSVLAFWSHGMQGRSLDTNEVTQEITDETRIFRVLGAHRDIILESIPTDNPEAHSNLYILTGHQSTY

[2] = target: MARK3 (Homo sapiens, UniProt P27448)
Sequence of MARK3 (P27448 whole entry): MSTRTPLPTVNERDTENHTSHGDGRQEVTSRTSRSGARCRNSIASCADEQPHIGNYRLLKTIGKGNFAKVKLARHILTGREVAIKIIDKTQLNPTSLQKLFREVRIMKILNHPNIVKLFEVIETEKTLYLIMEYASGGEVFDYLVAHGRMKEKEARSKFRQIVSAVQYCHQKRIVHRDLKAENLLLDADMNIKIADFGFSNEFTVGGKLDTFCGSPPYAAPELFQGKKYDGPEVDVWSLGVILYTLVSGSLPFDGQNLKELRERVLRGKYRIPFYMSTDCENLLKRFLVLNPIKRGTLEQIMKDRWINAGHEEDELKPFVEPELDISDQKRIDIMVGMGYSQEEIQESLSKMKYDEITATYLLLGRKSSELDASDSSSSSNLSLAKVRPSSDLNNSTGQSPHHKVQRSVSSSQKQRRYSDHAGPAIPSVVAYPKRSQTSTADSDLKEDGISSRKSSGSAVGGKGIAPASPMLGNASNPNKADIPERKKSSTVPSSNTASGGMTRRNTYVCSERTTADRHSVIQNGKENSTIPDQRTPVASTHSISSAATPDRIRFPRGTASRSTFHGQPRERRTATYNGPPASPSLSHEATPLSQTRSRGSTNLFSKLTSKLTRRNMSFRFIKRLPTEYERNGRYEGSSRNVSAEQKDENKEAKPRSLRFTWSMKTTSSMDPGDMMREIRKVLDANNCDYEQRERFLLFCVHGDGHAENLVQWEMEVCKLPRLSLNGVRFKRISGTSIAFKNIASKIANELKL

[3] = target: MLK1 (Homo sapiens, UniProt P80192)
Sequence of MLK1 (P80192 whole entry): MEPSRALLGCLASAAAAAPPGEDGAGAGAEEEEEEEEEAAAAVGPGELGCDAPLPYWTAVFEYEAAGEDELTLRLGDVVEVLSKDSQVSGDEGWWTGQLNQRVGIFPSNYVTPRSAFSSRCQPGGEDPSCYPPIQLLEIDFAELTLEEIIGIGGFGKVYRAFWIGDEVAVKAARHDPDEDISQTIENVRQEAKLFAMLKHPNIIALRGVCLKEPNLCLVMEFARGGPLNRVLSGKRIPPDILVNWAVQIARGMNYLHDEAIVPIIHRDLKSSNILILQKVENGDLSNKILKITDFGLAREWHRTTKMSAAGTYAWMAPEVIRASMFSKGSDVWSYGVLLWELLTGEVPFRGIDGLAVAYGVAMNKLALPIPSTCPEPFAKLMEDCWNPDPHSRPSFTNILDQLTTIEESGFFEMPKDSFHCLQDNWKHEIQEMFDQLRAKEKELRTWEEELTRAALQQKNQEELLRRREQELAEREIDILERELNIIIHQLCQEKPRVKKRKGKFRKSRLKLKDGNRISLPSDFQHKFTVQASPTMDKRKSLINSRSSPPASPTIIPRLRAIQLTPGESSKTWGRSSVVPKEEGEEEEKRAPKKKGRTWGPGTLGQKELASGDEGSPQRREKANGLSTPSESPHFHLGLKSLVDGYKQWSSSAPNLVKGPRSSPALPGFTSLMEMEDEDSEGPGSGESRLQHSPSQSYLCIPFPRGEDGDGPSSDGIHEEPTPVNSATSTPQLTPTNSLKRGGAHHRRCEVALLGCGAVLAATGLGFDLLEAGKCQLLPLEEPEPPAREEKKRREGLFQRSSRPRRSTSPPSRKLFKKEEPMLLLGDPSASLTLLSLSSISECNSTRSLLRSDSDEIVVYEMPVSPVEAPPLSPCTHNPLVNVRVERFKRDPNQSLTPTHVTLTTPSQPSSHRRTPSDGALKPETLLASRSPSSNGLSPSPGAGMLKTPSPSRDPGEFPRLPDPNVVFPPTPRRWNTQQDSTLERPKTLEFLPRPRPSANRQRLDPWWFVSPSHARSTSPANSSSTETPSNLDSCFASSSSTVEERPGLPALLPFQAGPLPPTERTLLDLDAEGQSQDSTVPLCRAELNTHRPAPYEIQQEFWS

- inhibition at 1 µM [1]: > 80%
- inhibition at 1 µM [2]: > 80%
- inhibition at 1 µM [3]: > 80%
SMILES: COc1cc2nc(-c3cc(F)ccc3O)nc(N[C@@H]3CNC[C@H]3C(C)(C)O)c2cc1OC [CCT241533]
